# Several values for one entry are separate records, joined by “and”; a condition that tells them apart may be missing. Identical values can stand only once. Inconclusive results and toxic doses are left out.
# Test system: CD2F1 mice, L1210 leukemia ip, survival T/C
# Test: NCI In Vivo Anticancer Drug Screen. Data for tumor model L1210 Leukemia (intraperitoneal) in CD2F1 (CDF1) mice
# Conditions: higher = longer survival
# Procedure, shortened: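 In this screen, transplantable tumors were grown in mice given either the compound or its vehicle. Results were expressed as the treated measurement relative to the control measurement.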
# [1] = endpoint: mean survival time, dose: 50.0 mg/kg/injection, schedule: Q01DX009 (ip), vehicle: saline with Tween-80
# [2] = endpoint: mean survival time, dose: 100.0 mg/kg/injection, schedule: Q01DX009 (ip), vehicle: saline with Tween-80
# [3] = endpoint: mean survival time, dose: 50.0 mg/kg/injection, schedule: Q04DX003 (ip), vehicle: saline
# [4] = endpoint: mean survival time, dose: 100.0 mg/kg/injection, schedule: Q04DX003 (ip), vehicle: saline
# [5] = endpoint: mean survival time, dose: 200.0 mg/kg/injection, schedule: Q04DX003 (ip), vehicle: saline
# [6] = endpoint: mean survival time, dose: 50.0 mg/kg/injection, schedule: Q01DX009 (ip), vehicle: saline
# [7] = endpoint: mean survival time, dose: 100.0 mg/kg/injection, schedule: Q01DX009 (ip), vehicle: saline
# [8] = endpoint: mean survival time, dose: 100.0 mg/kg/injection, schedule: Q04DX003 (ip), vehicle: saline with Tween-80
# [9] = endpoint: mean survival time, dose: 200.0 mg/kg/injection, schedule: Q04DX003 (ip), vehicle: saline with Tween-80
# [10] = endpoint: mean survival time, dose: 200.0 mg/kg/injection, schedule: Q01DX009 (ip), vehicle: saline with Tween-80
# [11] = endpoint: mean survival time, dose: 400.0 mg/kg/injection, schedule: Q01DX009 (ip), vehicle: saline with Tween-80
# [12] = endpoint: mean survival time, dose: 50.0 mg/kg/injection, schedule: Q04DX003 (ip), vehicle: saline with Tween-80
smiles,measurement,setting,value
COc1ccc(C(Cn2ccnc2)Sc2ccc(Cl)c(Cl)c2)cc1 (configuration not stated),T/C,"endpoint: mean survival time, dose: 6.25 mg/kg/injection, schedule: Q01DX009 (ip), vehicle: saline with Tween-80",96 % of control and 103 % of control
same,T/C,"endpoint: mean survival time, dose: 12.5 mg/kg/injection, schedule: Q01DX009 (ip), vehicle: saline with Tween-80",103 % of control and 104 % of control
same,T/C,"endpoint: mean survival time, dose: 25.0 mg/kg/injection, schedule: Q01DX009 (ip), vehicle: saline with Tween-80",98 % of control and 101 % of control
same,T/C,[1],96 % of control and 108 % of control
same,T/C,[2],101 % of control and 105 % of control
C[n+]1ccc(Nc2ccc(NC(=O)c3ccc(Nc4cc[n+](C)c5ccc([N+](=O)[O-])cc45)cc3)cc2)cc1,T/C,"endpoint: mean survival time, dose: 1.0 mg/kg/injection, schedule: Q01DX009 (ip), vehicle: water",103 % of control
same,T/C,"endpoint: mean survival time, dose: 2.0 mg/kg/injection, schedule: Q01DX009 (ip), vehicle: water",110 % of control
same,T/C,"endpoint: mean survival time, dose: 4.0 mg/kg/injection, schedule: Q01DX009 (ip), vehicle: water",116 % of control
same,T/C,"endpoint: mean survival time, dose: 16.0 mg/kg/injection, schedule: Q01DX009 (ip), vehicle: water",174 % of control
same,T/C,"endpoint: mean survival time, dose: 32.0 mg/kg/injection, schedule: Q01DX009 (ip), vehicle: water",223 % of control
same,T/C,[3],162 % of control
same,T/C,[4],186 % of control
same,T/C,[5],201 % of control
C[S+](C)C,T/C,"endpoint: mean survival time, dose: 25.0 mg/kg/injection, schedule: Q01DX009 (ip), vehicle: saline",101 % of control
same,T/C,[6],100 % of control
same,T/C,[7],104 % of control
same,T/C,[4],101 % of control
same,T/C,"endpoint: mean survival time, dose: 200.0 mg/kg/injection, schedule: Q01DX009 (ip), vehicle: saline",98 % of control
same,T/C,[5],101 % of control
same,T/C,"endpoint: mean survival time, dose: 400.0 mg/kg/injection, schedule: Q01DX009 (ip), vehicle: saline",102 % of control
same,T/C,"endpoint: mean survival time, dose: 400.0 mg/kg/injection, schedule: Q04DX003 (ip), vehicle: saline",104 % of control
CCCCCCCCCCCCCCCCS(=O)CC(O)COC(=O)c1ccc(C(=O)OCC(O)CS(=O)CCCCCCCCCCCCCCCC)cc1 (configuration not stated),T/C,"endpoint: mean survival time, dose: 12.5 mg/kg/injection, schedule: Q01DX009 (ip), vehicle: saline + Tween-80 + alcohol",96 % of control
same,T/C,"endpoint: mean survival time, dose: 12.5 mg/kg/injection, schedule: Q01DX009 (ip), vehicle: saline + alcohol",91 % of control
same,T/C,"endpoint: mean survival time, dose: 25.0 mg/kg/injection, schedule: Q01DX009 (ip), vehicle: saline + Tween-80 + alcohol",88 % of control
same,T/C,"endpoint: mean survival time, dose: 25.0 mg/kg/injection, schedule: Q01DX009 (ip), vehicle: saline + alcohol",105 % of control
same,T/C,"endpoint: mean survival time, dose: 50.0 mg/kg/injection, schedule: Q01DX009 (ip), vehicle: saline + Tween-80 + alcohol",90 % of control
same,T/C,"endpoint: mean survival time, dose: 50.0 mg/kg/injection, schedule: Q01DX009 (ip), vehicle: saline + alcohol",105 % of control
same,T/C,"endpoint: mean survival time, dose: 100.0 mg/kg/injection, schedule: Q01DX009 (ip), vehicle: saline + Tween-80 + alcohol",107 % of control
same,T/C,"endpoint: mean survival time, dose: 100.0 mg/kg/injection, schedule: Q01DX009 (ip), vehicle: saline + alcohol",91 % of control
same,T/C,"endpoint: mean survival time, dose: 200.0 mg/kg/injection, schedule: Q01DX009 (ip), vehicle: saline + Tween-80 + alcohol",107 % of control
same,T/C,"endpoint: mean survival time, dose: 200.0 mg/kg/injection, schedule: Q01DX009 (ip), vehicle: saline + alcohol",97 % of control
same,T/C,"endpoint: mean survival time, dose: 400.0 mg/kg/injection, schedule: Q01DX009 (ip), vehicle: saline + alcohol",105 % of control
O=C(CCl)Nc1ccc(-c2c(NC(=O)CCl)ncc3ccccc23)cc1,T/C,"endpoint: mean survival time, dose: 18.75 mg/kg/injection, schedule: Q04DX003 (ip), vehicle: other",100 % of control
same,T/C,"endpoint: mean survival time, dose: 37.5 mg/kg/injection, schedule: Q04DX003 (ip), vehicle: other",108 % of control
same,T/C,"endpoint: mean survival time, dose: 75.0 mg/kg/injection, schedule: Q04DX003 (ip), vehicle: other",108 % of control
same,T/C,"endpoint: mean survival time, dose: 150.0 mg/kg/injection, schedule: Q04DX003 (ip), vehicle: other",108 % of control
COc1ccc(NC(=O)Nc2c(Oc3ccc(Cl)cc3)ccc(Cl)c2S(=O)(=O)O)cc1Cl,T/C,[6],98 % of control
same,T/C,[7],87 % of control
same,T/C,[8],93 % of control
same,T/C,[9],91 % of control
O=[N+]([O-])c1cc2nsnc2cc1[N+](=O)[O-],T/C,[8],101 % of control
same,T/C,[9],95 % of control
same,T/C,"endpoint: mean survival time, dose: 400.0 mg/kg/injection, schedule: Q04DX003 (ip), vehicle: saline with Tween-80",96 % of control
CCN(CC)CCNc1ccc(C)c2sc3ccc(O)cc3c(=O)c12,T/C,"endpoint: median survival time, dose: 12.0 mg/kg/injection, schedule: Q01DX009 (ip), vehicle: saline with Tween-80",106 % of control
same,T/C,"endpoint: median survival time, dose: 12.5 mg/kg/injection, schedule: Q01DX009 (ip), vehicle: saline with Tween-80",110 % of control
same,T/C,"endpoint: median survival time, dose: 25.0 mg/kg/injection, schedule: Q01DX009 (ip), vehicle: saline with Tween-80",121 % of control
same,T/C,"endpoint: median survival time, dose: 50.0 mg/kg/injection, schedule: Q01DX009 (ip), vehicle: saline with Tween-80",159 % of control
same,T/C,"endpoint: median survival time, dose: 200.0 mg/kg/injection, schedule: Q01DX009 (ip), vehicle: saline with Tween-80",103 % of control
O=C(N/N=C/c1cccc(Cl)c1)c1ccccc1,T/C,[2],94 % of control
same,T/C,"endpoint: mean survival time, dose: 100.0 mg/kg/injection, schedule: Q04DX003 (ip), vehicle: Klucel (hydroxypropylcellulose) (HPC)",96 % of control
same,T/C,[10],94 % of control
same,T/C,"endpoint: mean survival time, dose: 200.0 mg/kg/injection, schedule: Q04DX003 (ip), vehicle: Klucel (hydroxypropylcellulose) (HPC)",94 % of control
same,T/C,[11],96 % of control
same,T/C,"endpoint: mean survival time, dose: 400.0 mg/kg/injection, schedule: Q04DX003 (ip), vehicle: Klucel (hydroxypropylcellulose) (HPC)",94 % of control
CCOC(=O)NNC(=O)Nc1ccccc1F,T/C,[2],104 % of control
same,T/C,[10],88 % of control
same,T/C,[11],94 % of control
COc1ccc(C=C2C(=O)C=CC2=O)cc1OC,T/C,"endpoint: mean survival time, dose: 5.0 mg/kg/injection, schedule: Q04DX002 (ip), vehicle: saline with Tween-80",103 % of control
same,T/C,"endpoint: mean survival time, dose: 10.0 mg/kg/injection, schedule: Q04DX002 (ip), vehicle: saline with Tween-80",103 % of control
O=c1[nH]cc(Oc2ccccc2)c(=O)[nH]1,T/C,"endpoint: mean survival time, dose: 50.0 mg/kg/injection, schedule: Q01DX001 (ip), vehicle: saline with Tween-80",104 % of control
same,T/C,"endpoint: mean survival time, dose: 100.0 mg/kg/injection, schedule: Q01DX001 (ip), vehicle: saline with Tween-80",96 % of control
same,T/C,"endpoint: mean survival time, dose: 200.0 mg/kg/injection, schedule: Q01DX001 (ip), vehicle: saline with Tween-80",98 % of control
CC(=O)NNC(=O)c1ccc2ccccc2n1,T/C,[1],96 % of control
same,T/C,[12],107 % of control
same,T/C,[2],104 % of control
same,T/C,[8],103 % of control
same,T/C,[10],111 % of control
same,T/C,[9],101 % of control
CC(=O)CC(C)=O.CC(=O)CC(C)=O.O.O.[Co],T/C,"endpoint: mean survival time, dose: 22.0 mg/kg/injection, schedule: Q04DX003 (ip), vehicle: saline with Tween-80",111 % of control
same,T/C,"endpoint: mean survival time, dose: 22.0 mg/kg/injection, schedule: Q04DX003 (ip), vehicle: saline",97 % of control
same,T/C,"endpoint: mean survival time, dose: 33.0 mg/kg/injection, schedule: Q04DX003 (ip), vehicle: saline with Tween-80",114 % of control
same,T/C,"endpoint: mean survival time, dose: 33.0 mg/kg/injection, schedule: Q04DX003 (ip), vehicle: saline",102 % of control
same,T/C,[12],109 % of control
same,T/C,[3],108 % of control
O=C(CNC(=O)c1ccccc1)N/N=C/c1ccncc1,T/C,[2],90 % of control
same,T/C,[11],92 % of control
CN(Cc1cnc2nc(N)nc(N)c2n1)c1ccc(C(=O)NC(CCC(=O)NC(CCC(=O)NC(CCC(=O)O)C(=O)O)C(=O)O)C(=O)O)cc1 (configuration not stated),T/C,"endpoint: mean survival time, dose: 0.5 mg/kg/injection, schedule: Q01DX005 (ip), vehicle: sodium bicarbonate",98 % of control
same,T/C,"endpoint: mean survival time, dose: 1.0 mg/kg/injection, schedule: Q01DX005 (ip), vehicle: sodium bicarbonate",111 % of control and 112 % of control
same,T/C,"endpoint: mean survival time, dose: 2.0 mg/kg/injection, schedule: Q01DX005 (ip), vehicle: sodium bicarbonate",114 % of control and 121 % of control
same,T/C,"endpoint: mean survival time, dose: 8.0 mg/kg/injection, schedule: Q01DX005 (ip), vehicle: sodium bicarbonate",152 % of control and 153 % of control
same,T/C,"endpoint: mean survival time, dose: 16.0 mg/kg/injection, schedule: Q01DX005 (ip), vehicle: sodium bicarbonate",158 % of control
CC(C)c1cc2c(cc1O)C1(C)CCCC(C)(C#N)C1CC2 (configuration not stated),T/C,"endpoint: mean survival time, dose: 100.0 mg/kg/injection, schedule: Q01DX009 (ip), vehicle: saline sonified",95 % of control
same,T/C,"endpoint: mean survival time, dose: 200.0 mg/kg/injection, schedule: Q01DX009 (ip), vehicle: saline sonified",89 % of control
same,T/C,"endpoint: mean survival time, dose: 400.0 mg/kg/injection, schedule: Q01DX009 (ip), vehicle: saline sonified",91 % of control
CCCCCCCCCCCC(=O)NC(=S)Nc1cccc(C(F)(F)F)c1,T/C,"endpoint: mean survival time, dose: 100.0 mg/kg/injection, schedule: Q01DX009 (ip), vehicle: other",95 % of control
same,T/C,"endpoint: mean survival time, dose: 200.0 mg/kg/injection, schedule: Q01DX009 (ip), vehicle: other",103 % of control
same,T/C,"endpoint: mean survival time, dose: 400.0 mg/kg/injection, schedule: Q01DX009 (ip), vehicle: other",103 % of control
